Laboratory results: PMC5767004, “Inhibitors of the integrase–transportin-SR2 interaction block HIV nuclear import” (Retrovirology, 2018)
Entries after “also recorded” stand apart in the source; their conditions may differ.

Columns and labels:
[1] = tested on: HIV; conditions: cited from earlier work
[2] = tested on: HIV PIC nuclear import (IN-eGFP labeled virus); assay: PIC nuclear import assay in HeLaP4 cells; assay type: cell-based, HIV-1; conditions: 100 µM hit compound, 5 h after infection, experiment compared to DMSO
[3] = target: T1, HIV-1 IN–TRN-SR2 interaction (UniProt P12497+Q9Y5L0); assay: HIV-1 IN–TRN-SR2 AlphaScreen interaction assay; assay type: binding; conditions: evaluation as positive control, Fig. 2b
T1 construct: N-terminally His6-tagged and untagged IN; made in house; host or cells: E. coli BL21-CodonPlus2 (DE3)
T1 sequence (Q9Y5L0 whole entry, other chains not shown): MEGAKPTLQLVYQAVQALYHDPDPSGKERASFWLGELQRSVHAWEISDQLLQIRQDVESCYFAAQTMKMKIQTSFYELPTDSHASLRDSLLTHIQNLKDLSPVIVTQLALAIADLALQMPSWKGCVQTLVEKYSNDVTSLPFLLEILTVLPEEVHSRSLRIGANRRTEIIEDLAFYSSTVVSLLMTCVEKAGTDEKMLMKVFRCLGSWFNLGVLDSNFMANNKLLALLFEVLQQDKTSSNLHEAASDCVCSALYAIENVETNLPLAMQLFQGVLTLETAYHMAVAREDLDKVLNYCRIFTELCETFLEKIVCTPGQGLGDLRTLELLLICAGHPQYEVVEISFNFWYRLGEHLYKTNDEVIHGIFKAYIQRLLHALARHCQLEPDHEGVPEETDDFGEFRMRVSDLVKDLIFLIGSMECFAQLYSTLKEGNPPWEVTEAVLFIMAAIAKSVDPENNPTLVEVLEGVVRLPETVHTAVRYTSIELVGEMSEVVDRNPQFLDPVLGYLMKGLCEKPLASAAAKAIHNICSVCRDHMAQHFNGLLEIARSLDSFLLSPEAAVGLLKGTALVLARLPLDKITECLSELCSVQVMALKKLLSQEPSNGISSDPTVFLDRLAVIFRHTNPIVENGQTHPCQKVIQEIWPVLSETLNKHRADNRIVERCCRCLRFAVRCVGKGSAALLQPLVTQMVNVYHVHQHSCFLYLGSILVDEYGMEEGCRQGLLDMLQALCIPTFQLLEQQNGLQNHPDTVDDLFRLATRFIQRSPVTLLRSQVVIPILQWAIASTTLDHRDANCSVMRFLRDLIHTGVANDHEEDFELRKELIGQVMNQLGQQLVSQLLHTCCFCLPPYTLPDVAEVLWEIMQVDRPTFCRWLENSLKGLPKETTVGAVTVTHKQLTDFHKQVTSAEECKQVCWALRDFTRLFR
Protocol: Compound stocks were dissolved at approximately 5 mM in dimethylsulfoxide (DMSO) in 96-well plates. Stocks were first diluted to 125 µM in assay buffer (150 mM NaCl, 25 mM Tris–HCl pH 7.4, 1 mM MgCl2, 0.1% (v/v) Tween-20 and 0.1% (w/v) bovine serum albumin (BSA)) supplemented with 2.5% (v/v) DMSO before 10 µl was transferred to a dry 384-well PS 384-OptiPlate (Perkin Elmer) on a Freedom EVO200 liquid handling robot (Tecan). Untagged TRN-SR2 at 2.5 µM and assay buffer containing 5% DMSO were transferred from a separate 96-well plate to the assay plates and represented the positive and negative controls, respectively. Next, 5 µl each of 5× working dilutions of GST-TRN-SR2 and His6-IN were added using an XRD-384 automated reagent dispenser (FluidX). The plate was left to incubate for 1 h at 7 °C before 5 µl of a glutathione donor and Ni^2+-chelate acceptor AlphaScreen bead mixture (Perkin Elmer) was added. […]
Development of robust high-throughput assays requires optimal buffer conditions in which both proteins and the detection method are stable and reproducible. […] This experience allowed us to readily adapt an assay buffer to meet the requirements for a high-throughput screen (HTS) for inhibitors of the interaction. […]

Molecule: Cc1[nH]c2ccccc2c1CC(=O)N[C@@H](Cc1ccccc1)C(=O)N(C)c1ccccc1 [PF74, PF-3450074]
- Inhibition of reverse transcription (in words) ([1]; higher concentrations (10 µM)): inhibits reverse transcription at higher concentrations
- Inhibition of HIV nuclear import (in words) ([1]; low concentrations (2 µM)): known to inhibit nuclear import at low concentrations

Molecule: Cc1nnc(C(=O)NC(C)(C)c2nc(C(=O)NCc3ccc(F)cc3)c(O)c(=O)n2C)o1 [Ral, Raltegravir]
- % nuclear PICs (mean) [2]: 4.5%

Molecule: Untagged TRN-SR2: untagged recombinant Transportin-SR2 protein, positive control of the AlphaScreen
- Inhibition of the IN–TRN-SR2 AlphaScreen signal by untagged protein (titration, in words) [3]: could block the interaction completely; also recorded: did inhibit the signal
